This is an account of results in publication PMC9908594, “Biochemical characterization and identification of ferulenol and embelin as potent inhibitors of malate:quinone oxidoreductase from Campylobacter jejuni” (Frontiers in Molecular Biosciences, 2023).

SMILES strings stand for the structures.

One assay deals with CjMQO (Campylobacter jejuni, UniProt P56954). Kind of assay: Inhibition mechanism of CjMQO (mixed-model fit, Lineweaver-Burk). The format is biochemical. As for the experimental part:
The inhibition mechanism of the two compounds were investigated as described in a previous study ([Acharjee et al., 2021]). First, the inhibition mechanism versus UQ1 was assayed separately in a reaction mixture containing 50 mM MOPS pH 7.0, 1 mM KCN and 0.2 μg/mL of purified CjMQO containing a range of different ferulenol (0, 0.01, 0.02, and 0.04 μM) and embelin (0, 0.05, 0.1, and 0.15 μM) concentrations. Enzyme activity was measured at varying concentrations of UQ1 (5, 10, 20, 50, and 100 μM) and the reaction was initiated with 10 mM malate. Second, the inhibition mechanism versus malate was determined at 50 μM of UQ1, and the reaction was initiated with varying concentrations of malate (5, 10, 15, and 20 mM) and monitored at 278 nm, in singlets. The steady-state kinetics parameters, in the presence of inhibitors, were used to produce the Lineweaver-Burk plot. Next, the data were fitted to a mixed-type inhibition equation by a nonlinear-regression method using GraphPad Prism software. The intercept and slope from the primary plot (Lineweaver-Burk plot), were replotted as a function of the inhibitor. Finally, additional analysis was performed based on Dixon and Cornish Bowden plots in addition to the plot of Lineweaver-Burk to differentiate the types of inhibition mechanisms.

Another assay has as its system C. jejuni ATCC29428. Kind of assay: C. jejuni growth inhibition, resazurin assay. Format: cell-based, Campylobacter jejuni. On the technique in general: Alamar Blue is a resazurin reagent that responds to reducing activity.
Assay [1] has as its target CjMQO (malate:quinone oxidoreductase from C. jejuni) (Campylobacter jejuni, UniProt P56954). Kind of assay: biochemical. Format: biochemical. The settings on record: 50 mM MOPS pH 7.0, 100 μM UQ1, 1 mM KCN, 0.2 μg/mL CjMQO, 10 mM malate; read-out: IC50 on purified CjMQO.
The test system of the next assay is human fibroblasts. Also noted: method as in Feresin et al., 2003. The settings on record: ref Feresin et al., 2003, read-out: Toxic concentration IC50; cited from earlier work.

CjMQO, sequence (P56954 whole entry): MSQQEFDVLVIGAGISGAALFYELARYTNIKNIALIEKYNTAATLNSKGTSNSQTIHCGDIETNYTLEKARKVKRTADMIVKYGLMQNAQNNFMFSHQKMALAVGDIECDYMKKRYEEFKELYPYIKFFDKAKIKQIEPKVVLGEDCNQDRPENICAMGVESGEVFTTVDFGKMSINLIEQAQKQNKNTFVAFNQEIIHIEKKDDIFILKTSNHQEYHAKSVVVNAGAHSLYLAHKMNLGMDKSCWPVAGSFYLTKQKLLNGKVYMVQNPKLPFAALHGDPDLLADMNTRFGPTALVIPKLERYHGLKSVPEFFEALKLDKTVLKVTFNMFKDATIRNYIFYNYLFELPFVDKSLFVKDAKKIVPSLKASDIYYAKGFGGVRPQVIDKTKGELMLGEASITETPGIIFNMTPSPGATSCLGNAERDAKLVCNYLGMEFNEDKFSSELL
CjMQO (malate:quinone oxidoreductase from C. jejuni), sequence (P56954 whole entry): as above

For `CCCCCCCCCCCC1=C(O)C(=O)C=C(O)C1=O` [Embelin, 2,5-dihydroxy-3-undecyl-p-benzoquinone], at CjMQO (UQ1 varied, malate fixed), the “K m (apparent, mixed-model fit)” value turned out to be 47 ± 6.3 µM; the “V max (apparent, mixed-model fit)” value was determined as 164 ± 11 µmol/min/mg; the “α versus UQ1 (quinone)” value was found to be 0.998. The “K i versus UQ1” value at CjMQO (UQ1 varied, malate fixed (10 mM)) was 0.14 µM. For the same molecule, on CjMQO (UQ1 varied, malate fixed, NC: noncompetitive), the “Inhibition type versus UQ1 (quinone)” value was “noncompetitive”. Besides, at CjMQO (malate varied, UQ1 fixed), the “Inhibition type versus malate” value is on record as “Mixed”; the “K m (apparent, mixed-model fit)” value is reported as 2,225 ± 292 μM; the “V max (apparent, mixed-model fit)” value was found to be 71 ± 3 µmol/min/mg; the α versus malate is 1.43. At CjMQO (malate varied, UQ1 fixed (50 μM)), the “K i versus malate” value was 0.10 µM. In addition, the “Inhibition type versus malate” value at CjMQO (malate varied, UQ1 fixed, listed as embelin) is listed as “mixed-type”. The molecule further gave an IC50 in the assay with C. jejuni ATCC29428 (Campylobacter jejuni, ATCC29428, Mueller Hinton broth, 24 h, microaerophilic, 37°C, resazurin) of 21 µM. In the assay with C. jejuni ATCC29428 (at a concentration of 100 μM), the “Inhibition of growth of C. jejuni ATCC29428” value is “completely inhibited”. The IC50 in assay [1] came out at 0.087 µM. Moreover, the IC50 with human fibroblasts is 739 µM.
